# “Also recorded” adds a separate entry of the source.
# Tests used:
# [1] = test system: primary cortical neuronal culture (PCN); assay: Glutamate neurotoxicity in primary cortical neuronal culture, MAP2 immunostaining; conditions: Glu 100 µM
# [2] = biological target: T1, 5-HT1A (Homo sapiens, UniProt P08908); conditions: cited from earlier work
# T1 sequence (P08908 1-422): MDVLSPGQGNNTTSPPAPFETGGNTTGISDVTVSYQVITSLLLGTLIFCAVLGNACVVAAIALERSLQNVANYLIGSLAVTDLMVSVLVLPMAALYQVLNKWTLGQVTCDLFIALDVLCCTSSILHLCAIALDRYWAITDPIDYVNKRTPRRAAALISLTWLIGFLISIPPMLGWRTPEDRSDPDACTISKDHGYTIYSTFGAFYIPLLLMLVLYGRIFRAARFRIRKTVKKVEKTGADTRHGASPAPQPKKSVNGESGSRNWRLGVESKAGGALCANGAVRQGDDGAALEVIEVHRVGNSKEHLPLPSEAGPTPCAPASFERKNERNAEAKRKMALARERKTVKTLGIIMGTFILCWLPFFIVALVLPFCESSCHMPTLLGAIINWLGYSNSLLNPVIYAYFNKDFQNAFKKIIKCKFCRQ
# [3] = test system: cluster headache (CH); conditions: low-dose psilocybin; cited from earlier work
# [4] = biological target: 5-HT2A receptor (Homo sapiens, UniProt P28223); conditions: cited from earlier work
# [5] = Body weight of TBI mice on PID21; format: in vivo, CD1 mice; conditions: for body weight: measured on PID21
# [6] = Deaths during surgery or post-TBI drug treatment; format: in vivo, CD1 mice; conditions: intranasal, day 4 to day 8 after CCI
# [7] = test system: TBI mice; assay: Morris water maze test in a mouse model of traumatic brain injury (controlled cortical impact)
# [8] = high dose Psilocybin, day 4 to day 8, PID 10, 14 and 21
# 5-HT2A receptor, sequence (P28223 whole entry): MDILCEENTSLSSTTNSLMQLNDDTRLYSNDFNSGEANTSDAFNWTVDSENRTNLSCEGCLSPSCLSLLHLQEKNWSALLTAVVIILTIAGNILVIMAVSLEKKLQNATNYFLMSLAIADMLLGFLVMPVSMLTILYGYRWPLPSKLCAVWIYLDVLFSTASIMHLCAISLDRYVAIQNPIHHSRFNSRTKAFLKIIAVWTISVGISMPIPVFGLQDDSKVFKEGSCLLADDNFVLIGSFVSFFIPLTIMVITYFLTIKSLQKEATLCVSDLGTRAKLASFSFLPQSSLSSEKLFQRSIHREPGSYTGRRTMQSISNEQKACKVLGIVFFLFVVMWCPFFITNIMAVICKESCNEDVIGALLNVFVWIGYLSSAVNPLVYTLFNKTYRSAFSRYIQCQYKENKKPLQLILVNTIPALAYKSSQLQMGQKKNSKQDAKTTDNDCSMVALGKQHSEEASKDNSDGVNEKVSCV
structure (smiles),measurement,setting,value
"N[C@@H](CCC(=O)O)C(=O)O [Glu, glutamate]",Effect on MAP2 immunoreactivity (MAP2-ir) vs. vehicle,[1]; 48 hrs,significantly reduced
"CN(C)CCc1c[nH]c2cccc(OP(=O)(O)O)c12 [Psilocybin, 4-phosphoryloxy-N,N-dimethyltryptamine]",Agonist activity at 5-HT1A,[2],moderate agonist
same,Effect on cluster headache,[3],can prevent
same,Antagonism of glutamate-mediated reduction of MAP2 immunoreactivity (neuronal loss),"[1]; PSI 100 nM or 1 μM, n=5-6 per group",not significantly altered; also recorded: non-significant trend; also recorded: not significantly antagonized; also recorded: did not significantly alter
same,Agonist activity at 5-HT2A receptor,[4],strong agonist
same,Body weight (in words),[5]; PID21,did not significantly alter
same,body weight,[5]; Psi-H (high dose),34.7 ± 0.87 g
same,body weight,[5]; Psi-L (low dose),35.71 ± 0.68 g
same,Animal deaths during post-TBI drug treatment,[6],No animal died
same,No. of crossing (average number of platform crossings),"[7]; Psi-H (high dose), Day 3 (PID3, before drug treatment)",4.43 ± 0.69
same,No. of crossing (average number of platform crossings),"[7]; Psi-H (high dose, i.n. day 4 to day 8 after CCI), Day 10",6.00 ± 0.85
same,No. of crossing (average number of platform crossings),"[7]; Psi-H (high dose, i.n. day 4 to day 8 after CCI), Day 14",6.00 ± 0.44
same,No. of crossing (average number of platform crossings),"[7]; Psi-H (high dose, i.n. day 4 to day 8 after CCI), Day 21",6.00 ± 0.66
same,No. of crossing (average number of platform crossings),"[7]; Psi-L (low dose), Day 3 (PID3, before drug treatment)",3.57 ± 0.90
same,No. of crossing (average number of platform crossings),"[7]; Psi-L (low dose, i.n. day 4 to day 8 after CCI), Day 10",4.14 ± 0.51
same,No. of crossing (average number of platform crossings),"[7]; Psi-L (low dose, i.n. day 4 to day 8 after CCI), Day 14",4.43 ± 0.61
same,No. of crossing (average number of platform crossings),"[7]; Psi-L (low dose, i.n. day 4 to day 8 after CCI), Day 21",3.29 ± 0.57
same,Average number of platform crossings in TBI mice (in words),[7]; [8],significantly increased
same,Time in the target area in TBI mice (in words),[7]; [8],significantly increased
same,Cognitive function in TBI mice (Morris water maze),[7]; i.n. starting 4 days after TBI for 5 days,significantly improved

# From patent publication US20240277736A1, “USE OF PSILOCYBIN IN THE TREATMENT OF NEUROLOGICAL BRAIN INJURY AND MIGRAINES” (priority 2020, published 2024)
